Test results published in paper PMC12175890 (Science Advances, 2025).

Target: T1, BdPAPT-CD (Babesia duncani, UniProt A0AAD9PLN9)
T1 sequence (A0AAD9PLN9 301-734): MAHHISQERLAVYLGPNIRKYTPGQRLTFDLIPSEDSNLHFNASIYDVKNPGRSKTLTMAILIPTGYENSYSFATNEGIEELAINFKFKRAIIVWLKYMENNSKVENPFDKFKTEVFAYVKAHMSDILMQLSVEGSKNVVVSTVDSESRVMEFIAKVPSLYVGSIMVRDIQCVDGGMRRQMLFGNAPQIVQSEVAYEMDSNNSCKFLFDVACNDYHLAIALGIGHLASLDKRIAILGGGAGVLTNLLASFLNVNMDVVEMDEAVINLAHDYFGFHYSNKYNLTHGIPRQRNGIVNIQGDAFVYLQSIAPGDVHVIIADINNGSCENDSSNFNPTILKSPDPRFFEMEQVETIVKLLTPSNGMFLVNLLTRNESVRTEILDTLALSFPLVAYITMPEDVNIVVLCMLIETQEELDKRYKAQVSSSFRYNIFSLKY
Assay: TLC of spermidine formation
Format: biochemical
Details: 0.1 mM dcSAM, 0.1 mM putrescine, 37 °C, potassium phosphate pH 7.5

NCCCCN [PUT]
TLC of spermidine formation: efficient conversion of PUT to SPD by BdPAPT-Cterm and its CD
